# Experimental data: ChEMBL document CHEMBL4431316, “New 6-Aminoquinoxaline Derivatives with Neuroprotective Effect on Dopaminergic Neurons in Cellular and Animal Parkinson Disease Models” (J Med Chem, 2016)
# Activity calls are given as the source filed them. No cut-off for these calls is given here.
# Species on record: Rattus norvegicus
# Assay: Neuroprotective activity in Sprague-Dawley rat DA neuron death PD model assessed as inhibition of calcium mobilization at 50 uM after 10 days in presence of N-type voltage gated calcium channel blocker omega-conotoxin M7A
# Format: functional
structure (smiles),measurement,value
Nc1ccc2ncc(-c3ccccc3)nc2c1,inhibition,Active
